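All cell lines were grown in 96-well plates and treated with compound for 48 hours. The concentration for 50% growth inhibition is given as GI50.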 Calls of active or inactive are those of the source. Rule as the data show it: active = GI50 up to about 1.1 µM and inactive = higher.
Columns and labels:
Assay in all cases: growth of human tumour cells (NCI), 48 h
HT-29 = tested on: HT-29
CCRF-CEM = tested on: CCRF-CEM
KM12 = tested on: KM12
HOP-62 = tested on: HOP-62
NCI/ADR-RES = tested on: NCI/ADR-RES
K562 = tested on: K562
MOLT-4 = tested on: MOLT-4
OVCAR-8 = tested on: OVCAR-8
SN12C = tested on: SN12C
LOX IMVI = tested on: LOX IMVI
SK-MEL-5 = tested on: SK-MEL-5
UACC-257 = tested on: UACC-257
SF-268 = tested on: SF-268
SF-539 = tested on: SF-539
UO-31 = tested on: UO-31
HCT-116 = tested on: HCT-116
SK-MEL-28 = tested on: SK-MEL-28
RXF 393 = tested on: RXF 393
SR = tested on: SR
OVCAR-5 = tested on: OVCAR-5
EKVX = tested on: EKVX
TK-10 = tested on: TK-10
SK-OV-3 = tested on: SK-OV-3
OVCAR-3 = tested on: OVCAR-3
ACHN = tested on: ACHN
M14 = tested on: M14
HCC 2998 = tested on: HCC 2998
U-251 = tested on: U-251
RPMI-8226 = tested on: RPMI-8226
SNB-75 = tested on: SNB-75
NCI-H226 = tested on: NCI-H226
MDA-MB-435 = tested on: MDA-MB-435
T47D = tested on: T47D
OVCAR-4 = tested on: OVCAR-4
HL-60 = tested on: HL-60
UACC-62 = tested on: UACC-62
SW-620 = tested on: SW-620
A498 = tested on: A498
A549 = tested on: A549
IGROV-1 = tested on: IGROV-1
MDA-MB-231 = tested on: MDA-MB-231
NCI-H460 = tested on: NCI-H460
Malme-3M = tested on: Malme-3M
CAKI-1 = tested on: CAKI-1
Hs-578T = tested on: Hs-578T
HOP-92 = tested on: HOP-92
NCI-H522 = tested on: NCI-H522
BT-549 = tested on: BT-549
SF-295 = tested on: SF-295
786-0 = tested on: 786-0
SK-MEL-2 = tested on: SK-MEL-2
PC-3 = tested on: PC-3
NCI-H23 = tested on: NCI-H23
MDA-N = tested on: MDA-N
MCF7 = tested on: MCF7
HCT-15 = tested on: HCT-15
DU-145 = tested on: DU-145
COLO 205 = tested on: COLO 205
SNB-19 = tested on: SNB-19

Measured: GI50

NNC(=S)N/N=C(/C(=O)Nc1ccc(Cl)c(Cl)c1)C(C1OC(=O)c2ccccc21)[N+](=O)[O-] (centres undefined)
inactive: HT-29 > 100 µM | CCRF-CEM 52.7 µM | KM12 > 100 µM | HOP-62 > 100 µM | NCI/ADR-RES > 100 µM | K562 > 100 µM | MOLT-4 > 100 µM | OVCAR-8 > 100 µM | SN12C > 100 µM | LOX IMVI > 100 µM | SK-MEL-5 > 100 µM | UACC-257 > 100 µM | SF-268 > 100 µM | SF-539 > 100 µM | UO-31 > 100 µM | HCT-116 > 100 µM | SK-MEL-28 > 100 µM | RXF 393 > 100 µM | SR > 10 µM | OVCAR-5 > 100 µM | EKVX > 100 µM | TK-10 > 100 µM | SK-OV-3 > 100 µM | OVCAR-3 > 100 µM | ACHN > 100 µM | M14 > 100 µM | HCC 2998 > 100 µM | U-251 > 100 µM | RPMI-8226 > 100 µM | SNB-75 > 100 µM | NCI-H226 > 100 µM | MDA-MB-435 > 100 µM | T47D > 100 µM | OVCAR-4 > 100 µM | HL-60 19.9 µM | UACC-62 > 100 µM | SW-620 > 100 µM | A498 > 100 µM | A549 > 100 µM | IGROV-1 54.5 µM | MDA-MB-231 > 100 µM | NCI-H460 > 100 µM | Malme-3M > 100 µM | CAKI-1 > 100 µM | Hs-578T > 100 µM | HOP-92 86.9 µM | NCI-H522 > 100 µM | BT-549 > 100 µM | SF-295 > 100 µM | 786-0 > 100 µM | SK-MEL-2 > 100 µM | PC-3 > 100 µM | NCI-H23 > 100 µM | MDA-N > 100 µM | MCF7 > 100 µM
> 100 µM: HCT-15

CN1C(=O)[C@@H]2N(CSC2(C)C)C1=S
> 100 µM: HCT-15
inactive: HT-29 > 100 µM | KM12 > 100 µM | HOP-62 > 100 µM | NCI/ADR-RES > 100 µM | K562 69.7 µM | MOLT-4 > 100 µM | DU-145 > 100 µM | OVCAR-8 > 100 µM | SN12C > 100 µM | SK-MEL-5 4.47 µM | UACC-257 > 100 µM | SF-268 > 100 µM | SF-539 > 100 µM | UO-31 > 100 µM | HCT-116 > 100 µM | SK-MEL-28 > 100 µM | RXF 393 > 100 µM | SR > 100 µM | OVCAR-5 > 100 µM | EKVX > 100 µM | TK-10 > 100 µM | SK-OV-3 > 100 µM | OVCAR-3 > 100 µM | ACHN > 100 µM | M14 > 100 µM | HCC 2998 > 100 µM | COLO 205 > 100 µM | U-251 > 100 µM | RPMI-8226 > 100 µM | SNB-75 > 100 µM | NCI-H226 > 100 µM | MDA-MB-435 > 100 µM | T47D > 100 µM | OVCAR-4 > 100 µM | UACC-62 > 100 µM | SW-620 > 100 µM | A498 > 100 µM | A549 > 100 µM | IGROV-1 > 100 µM | MDA-MB-231 > 100 µM | NCI-H460 > 100 µM | CAKI-1 > 100 µM | HOP-92 98.6 µM | NCI-H522 29.1 µM | BT-549 > 100 µM | SF-295 > 100 µM | 786-0 > 100 µM | SK-MEL-2 > 100 µM | PC-3 > 100 µM | NCI-H23 > 100 µM | MDA-N > 100 µM | MCF7 > 100 µM | SNB-19 > 100 µM

COc1ccc(NC(=O)CC(=O)N2N=C(N3c4ccccc4Sc4ccccc43)CC2c2ccccc2)cc1 (centres undefined)
inactive: HT-29 > 100 µM | CCRF-CEM > 100 µM | KM12 > 100 µM | HOP-62 > 100 µM | NCI/ADR-RES > 100 µM | K562 > 100 µM | MOLT-4 > 100 µM | DU-145 > 100 µM | OVCAR-8 > 100 µM | SN12C > 100 µM | SK-MEL-5 > 100 µM | UACC-257 > 100 µM | SF-268 23.4 µM | SF-539 > 100 µM | UO-31 > 100 µM | HCT-116 > 100 µM | SK-MEL-28 > 100 µM | RXF 393 > 100 µM | SR > 100 µM | OVCAR-5 > 100 µM | EKVX > 100 µM | TK-10 > 100 µM | SK-OV-3 > 100 µM | OVCAR-3 > 100 µM | ACHN > 100 µM | M14 > 100 µM | HCC 2998 > 100 µM | COLO 205 > 100 µM | U-251 > 100 µM | RPMI-8226 > 100 µM | SNB-75 47.6 µM | NCI-H226 > 100 µM | MDA-MB-435 > 100 µM | T47D > 100 µM | OVCAR-4 > 100 µM | HL-60 > 100 µM | UACC-62 > 100 µM | SW-620 > 100 µM | A549 > 100 µM | IGROV-1 > 100 µM | MDA-MB-231 > 100 µM | NCI-H460 > 100 µM | CAKI-1 > 100 µM | Hs-578T 39.7 µM | HOP-92 > 100 µM | NCI-H522 > 100 µM | BT-549 > 100 µM | SF-295 > 100 µM | 786-0 > 100 µM | SK-MEL-2 > 100 µM | PC-3 > 100 µM | NCI-H23 > 100 µM | MCF7 > 100 µM | SNB-19 > 100 µM
> 100 µM: HCT-15

CCC(CCCN)Nc1cc(OC)cc2c(C)ccnc12 (centres undefined)
inactive: HT-29 14.3 µM | CCRF-CEM 18.4 µM | KM12 14.9 µM | HOP-62 15.1 µM | NCI/ADR-RES 25.1 µM | K562 15 µM | MOLT-4 15.8 µM | DU-145 17.5 µM | OVCAR-8 21.1 µM | SN12C 21.2 µM | LOX IMVI 16.3 µM | SK-MEL-5 17.8 µM | UACC-257 17.9 µM | SF-268 15.3 µM | SF-539 18.4 µM | UO-31 12.9 µM | HCT-116 15.9 µM | SK-MEL-28 16.9 µM | RXF 393 13.8 µM | SR 15.3 µM | OVCAR-5 17.7 µM | EKVX 18.4 µM | TK-10 17.7 µM | SK-OV-3 13.6 µM | OVCAR-3 15.4 µM | ACHN 18.3 µM | M14 15.2 µM | HCC 2998 18.8 µM | COLO 205 18.2 µM | SNB-75 12.7 µM | NCI-H226 13.3 µM | MDA-MB-435 14.8 µM | OVCAR-4 17.8 µM | HL-60 12.4 µM | UACC-62 > 10 µM | SW-620 20.8 µM | A498 18.7 µM | A549 15.6 µM | IGROV-1 16.8 µM | MDA-MB-231 13.3 µM | NCI-H460 17.7 µM | Malme-3M 19.6 µM | CAKI-1 15.5 µM | Hs-578T 13 µM | HOP-92 14 µM | BT-549 14.9 µM | SF-295 17.3 µM | 786-0 15.4 µM | SK-MEL-2 20.8 µM | PC-3 11.6 µM | MDA-N 17.5 µM | MCF7 15 µM | SNB-19 11.3 µM
22.9 µM: HCT-15

NS(=O)(=O)c1ccc2c(c1)OCCOCCOCCOCCO2
inactive: HT-29 > 100 µM | CCRF-CEM > 100 µM | KM12 > 100 µM | HOP-62 > 100 µM | K562 > 100 µM | MOLT-4 > 100 µM | DU-145 > 100 µM | OVCAR-8 > 100 µM | SN12C > 100 µM | LOX IMVI > 100 µM | SK-MEL-5 > 100 µM | UACC-257 > 100 µM | SF-268 > 100 µM | SF-539 > 100 µM | UO-31 > 100 µM | HCT-116 > 100 µM | SK-MEL-28 > 100 µM | SR > 100 µM | EKVX > 100 µM | TK-10 > 100 µM | SK-OV-3 > 100 µM | ACHN > 100 µM | M14 > 100 µM | HCC 2998 > 100 µM | COLO 205 > 100 µM | RPMI-8226 > 100 µM | SNB-75 > 100 µM | NCI-H226 > 100 µM | MDA-MB-435 > 100 µM | T47D > 100 µM | HL-60 > 100 µM | UACC-62 > 100 µM | SW-620 > 100 µM | A498 > 100 µM | A549 > 100 µM | IGROV-1 > 100 µM | MDA-MB-231 > 100 µM | NCI-H460 > 100 µM | Malme-3M > 100 µM | CAKI-1 > 100 µM | Hs-578T > 100 µM | NCI-H522 > 100 µM | BT-549 > 100 µM | SF-295 > 100 µM | 786-0 > 100 µM | PC-3 > 100 µM | NCI-H23 > 100 µM | MCF7 > 100 µM | SNB-19 > 100 µM
> 100 µM: HCT-15

Source: ChEMBL document CHEMBL1201862, “PubChem BioAssay data set” (2004)
